The numbers were not newly measured in patent publication US9814239B2, “Antimicrobial complexes” (priority 2010, dated 2017), which cites them from elsewhere.

One series relates to Bacillus subtilis. Particulars: Gram Positive.
The subject of another series is Aspergillus niger. Particulars: Molds.
The subject of the next series is Proteus vulgaris. Particulars: Gram Negative.
A further series deals with Salmonella typhimurium. As to conditions: Gram Negative.
In the next series the test system is Escherichia coli. Particulars: Gram Negative.
A further series concerns Endomycopsis albicans. Particulars: Yeasts.
In a further series the test system is Pseudomonas aeruginosa. Particulars: Gram Negative.
For the next series, the system named is Saccharomyces cerevisiae. Particulars: Amoeba (so in the source).
The subject of a further series is Staphylococcus aureus. Particulars: Gram Positive.
Another series deals with Streptococcus faecalis. As to conditions: Gram Positive.

For the compound `[O-][n+]1ccccc1S` [Sodium Omadine, sodium omadine], the “Bactericide concentration (ppm)” value in the series on Bacillus subtilis is recorded as 0.5 ppm; with Proteus vulgaris, 8 ppm; with Salmonella typhimurium, 16 ppm; in the series with Escherichia coli it was 16 ppm; in the series with Pseudomonas aeruginosa, 128 ppm; in the series with Staphylococcus aureus, 16 ppm. In the series on Streptococcus faecalis, the “Bactericide concentration (ppm)” value was 2 ppm. In addition, the “Fungicide concentration (ppm)” value in the series on Aspergillus niger, with Endomycopsis albicans and in the series on Saccharomyces cerevisiae was <0.25 ppm in each case.
